Tests used:
Ras-GTP = test: GTPase pull-down assay (GST-Raf1-RBD) in K562 cells; format: cell-based, human; conditions: 50 μM, 2 minutes to 4 hours
Procedure: Lysate with 500 μg protein were used to determined the Ras-GTP content by the Glutathione S-transferase(GST)-RBD(Ras-binding domain of Raf) pull down assay. The treated and control cells were lysed in lysis buffer (25 mMTris-HCl, pH7.5, 150 mM NaCl, 5 mM MgCl2, 1% NP-40, 1 mM DTT and 5% glycerol) for 5 minutes at 4° C. Soluble cell lysates were obtained by centrifuged at 17000 g for 5 minutes. 500 μg cell lysate were collected and incubated with 80 μg GST-Raf1-RBD in 50 mM Tris-HCl, pH7.2, 150 mM NaCl, 0.5% Triton X-100, 5 mM MgCl2, 1 m MDTT and 10% glycerol for 1 hour at 4° C. The beads were washed with lysis buffer for 3 times and then resuspended and boiled in 2×sample buffer at 100° C. for 5 minutes. 25 μsupernatants were collected by centrifuged at 7200 g for 2 minutes and then resolved in 15% SDS-PAGE followed by western blot analysis using anti-Ras antibody. • 6.1.8 Laboratory-Scale Preparation of Cucurbitacin B and Cucurbitacin D
In order to further investigate if cucurbitacin B block the Stat3 activation is truly through Erk pathway in K562 cells, the ability of cucurbitacin B to inhibit the Ras/Raf/Mek/Erk pathway was determined by measuring Ras-GTP, phosphorylation of c-Raf, Mek1/2, Erk1/2 and Elk-1 in K562 cells. The cells were incubated with 50 μM cucurbitacin B for the indicated time intervals (2 minutes, 5 minutes, 10 minutes, 30 minutes, 1 hour and 4 hours). […]

[1] = system: Human GBM cell lines U87, T98G, U118, U343, U373; test: MTT cell cytotoxicity assay, glioblastoma multiforme cell lines; format: cell-based; conditions: 48 hours, range over the cell lines
Procedure: Human GBM cell lines U87, T98G, U118, U343, U373 cell lines were maintained in Dulbecco's modified Eagle's medium (Gibco, BRL) with 10% fetal calf serum (Gemini Bio-Products, Calabasas, Calif., USA), 10 U/ml penicillin G and […] streptomycin. They were all incubated at 37° C. in 5% CO2 atmosphere.
The cytotoxic effect of CuB on these cancer cell lines were determined using MTT (3-[4,5-dimethylthiazol-2-yl]-2,5-diphenyl tetrazolium bromide) labeled cell cytotoxicity assay. A total of 1×10^4 cells were seeded into a 96-well plate for 24 hours prior to cucurbitacin B (CuB) treatment. They were then treated with different dosages of CuB for 48 hours. After the treatment, 20 μl of MTT (5 mg/ml) was added to each well and incubated for 4 hrs. Then the medium was discarded and 100 μl of dimethyl sulfoxide was added. The absorbance at 570 nm was then measured by a microplate reader and the 50% inhibition concentration (IC50) were obtained. Results for untreated control cells were set as 100%, with remaining data shown as a percentage of control. Data represented the mean±standard error of triplicate samples.

CC(=O)OC(C)(C)/C=C/C(=O)[C@](C)(O)C1[C@H](O)C[C@@]2(C)C3CC=C4C(C[C@H](O)C(=O)C4(C)C)[C@]3(C)C(=O)C[C@]12C (some centres unmarked) [cucurbitacin B]
Ras-GTP activation (Ras-GTP): no significant change
GI50 [1]: 50 to 100 nM

From patent US20090247495A1, “CU[…] AND USES THEREOF” (priority 2007, published 2009)
